Results from US20130012709A1, “NOVEL INHIBITORS OF STEAROYL-CoA-DESATURASE-1 AND THEIR USES” (CENTRE NATIONAL DE LA RECHERCHE SCIENTIFIQUE, priority 2009, published 2013).
Read-outs that look alike come from different tables or passages of the source.

Legend:
C4-2 cells [1] = assay: Proliferation by BrDU incorporation; conditions: 25 μM, 48 h of treatment
Description: (§2) LNCaP and C4-2 cells grown on coverslips were incubated for 4 hours with BrdU (100 μM final) at 24 hours and 48 hours following SCD-1 knock-down. Cells were then fixed and permeabilized with cold methanol for 10 min at −20° C. After 3 washes with PBS, DNA was denaturated with 4NHCL for 10 min at RT, and cells were incubated with blocking buffer (PBS-1% BSA). BrDU was then detected with anti-BrDU monoclonal antibody 1:50 (Dako, Carpinteria, Calif.) for 1 hour at 37° C. After 3 washes with PBS, cells were incubated with an FITC-conjugated anti-mouse secondary antibody 1:150 (Jackson Immunoresearch) for 30 min at 37° C., and slides were mounted in mowiol.

LNCaP cells [2] = assay: Flow cytometry analysis of cell cycle; type: cell-based, human; conditions: 25 μM, 48 h; untreated cells 20
Description: (§1) Cells were then rinsed in PBS, pelleted at 400 g for 5 min and maintained on ice for 20 min before resuspension in a […] propidium iodide (Sigma) solution. Cells were kept overnight at 4° C. and the percentages of cells in G1, S and G2-M phases of the cell cycle were measured with a Coulter Epics XL™ flow cytometer (Becton Dickinson) using 488-nm laser excitation. For apoptosis experiment, MEFs were treated with the tested compound at 25 μM for 24 h, then rinced in PBS, pelleted at 400 g for 5 min and stained with annexinV-FITC (Roche Diagnostics, Meylan, France) for 15 min at 4° C. The percentage of annexin positive cells was immediately analysed using 488-nm laser excitation.

C4-2 cells [3] = assay: Flow cytometry analysis of cell cycle; type: cell-based, human; conditions: 25 μM, 48 h; untreated cells 22
Description: as §1

C4-2 cells [4] = assay: MTT assay (cell viability); conditions: 48 h
Description: (§3) After 48 h, medium was removed and 250 μl of a 5 mg/ml MTT (Sigma, St Louis, Mo., USA) solution in PBS was added to each well. After 4 h incubation at 37° C., the MTT solution was removed, 200 μl of DMSO (Sigma) was added and cells were incubated for 5 min. Two hundred microliters of each samples was distributed in 96-well plates for an optical density reading at 540 nm.

LNCaP cells [5] = assay: Proliferation by BrDU incorporation; type: cell-based, human; conditions: 25 μM, 48 h of treatment
Description: as §2

C4-2 cells [6] = test system: C4-2 cells
Description: as §3

SMILES | % Inhibition of proliferation at 25 μM (BrDU) on C4-2 (C4-2 cells [1]) | also measured
COc1ccc(Br)c(C(=O)N2CCN(S(=O)(=O)c3c(F)cccc3F)CC2)c1 [Example 14, 1N-[(2-bromo-5-methoxybenzoyl)]-4N-[(2,6-difluorophenyl)sulfonyl]piperazine] | 0% | –
COc1ccc(Br)c(C(=O)N2CCN(S(=O)(=O)c3ccc(C(F)(F)F)cc3)CC2)c1 [Example 3, 1N-[(2-bromo-5-methoxybenzoyl)]-4N-[(4-trifluoromethylphenyl)sulfonyl]piperazine] | 65.8 ± 6.4% | % LNCaP cells in phase S at 25 μM (LNCaP cells [2]): 10%; % C4-2 cells in phase S at 25 μM (C4-2 cells [3]): 2.8%
COc1ccc(Br)c(C(=O)N2CCN(S(=O)(=O)c3ccc(Cl)cc3)CC2)c1 [Example 18, 1N-[(2-bromo-5-methoxybenzoyl)]-4N-[(4-chlorophenyl)sulfonyl]piperazine] | 38.1 ± 7.1% | Viable C4-2 cells at 25 μM (% of control) (C4-2 cells [4]): 59 % of control; % Inhibition of proliferation at 25 μM (BrDU) on LNCaP (LNCaP cells [5]): 49.7%
COc1ccc(Br)c(C(=O)N2CCN(S(=O)(=O)c3ccc(C(C)=O)cc3)CC2)c1 [Example 4, 1N-[(2-bromo-5-methoxybenzoyl)]-4N-[(4-acetylphenyl)sulfonyl]piperazine] | 36 ± 5.4% | % LNCaP cells in phase S at 25 μM (LNCaP cells [2]): 18%; % C4-2 cells in phase S at 25 μM (C4-2 cells [3]): 19.7%
COc1ccc(Br)c(C(=O)N2CCN(S(=O)(=O)c3ccc(-c4ccccc4)cc3)CC2)c1 [Example 9, 1N-[(2-bromo-5-methoxybenzoyl)]-4N-[(4-biphenyl)sulfonyl]piperazine] | 60.5 ± 5.7% | Viable C4-2 cells at 25 μM (% of control) (C4-2 cells [4]): 90 % of control; % Inhibition of proliferation at 25 μM (BrDU) on LNCaP (LNCaP cells [5]): 48.3%
COc1ccc(Br)c(C(=O)N2CCN(S(=O)(=O)c3cccc(C(F)(F)F)c3)CC2)c1 [Example 7, 1N-[(2-bromo-5-methoxybenzoyl)]-4N-[(3-trifluoromethylphenyl)sulfonyl]piperazine] | 31.6 ± 7.61% | Viable C4-2 cells at 25 μM (% of control) (C4-2 cells [6]): 44 % of control; % Inhibition of proliferation at 25 μM (BrDU) on LNCaP (LNCaP cells [5]): 16.7%
COc1cccc(C(=O)N2CCN(S(=O)(=O)c3ccc(F)cc3F)CC2)c1 [Example 31, 1N-[(3-methoxybenzoyl)]-4-N-[(2,4-difluorophenyl)sulfonyl]piperazine] | 25.3 ± 6.1% | –
COc1ccc(C(=O)N2CCN(S(=O)(=O)c3ccc(F)cc3F)CC2)cc1Br [Example 26, 1N-[(3-bromo-4-methoxybenzoyl)]-4-N-[(2,4-difluorophenyl)sulfonyl]piperazine] | 68.2 ± 18.2% | –
COc1ccc(Br)c(C(=O)N2CCN(S(=O)(=O)c3ccc([N+](=O)[O-])cc3)CC2)c1 [Example 6, 1N-[(2-bromo-5-methoxybenzoyl)]-4N-[(4-nitrophenyl)sulfonyl]piperazine] | 0% | % LNCaP cells in phase S at 25 μM (LNCaP cells [2]): 15%; % C4-2 cells in phase S at 25 μM (C4-2 cells [3]): 19.8%; Viable C4-2 cells at 25 μM (% of control) (C4-2 cells [4]): 42 % of control
COc1ccc(Br)c(C(=O)N2CCN(S(=O)(=O)c3cn(C)cn3)CC2)c1 [Example 25, 1N-[(2-bromo-5-methoxybenzoyl)]-4N-[(1-methyl-1H-imidazole)sulfonyl]piperazine] | 0% | –
COc1ccc(Br)c(C(=O)N2CCN(S(=O)(=O)c3cccs3)CC2)c1 [Example 21, 1N-[(2-bromo-5-methoxybenzoyl)]-4N-[(2-thiophene)sulfonyl]piperazine] | 58.3 ± 19.9% | –
COc1ccc(Br)c(C(=O)N2CCN(S(=O)(=O)c3ccccc3F)CC2)c1 [Example 13, 1N-[(2-bromo-5-methoxybenzoyl)]-4N-[(2-fluorophenyl)sulfonyl]piperazine] | 55.6 ± 3.1% | Viable C4-2 cells at 25 μM (% of control) (C4-2 cells [6]): 56 % of control; % Inhibition of proliferation at 25 μM (BrDU) on LNCaP (LNCaP cells [5]): 27.1%
COc1ccc(Br)c(C(=O)N2CCN(S(=O)(=O)Cc3ccccc3)CC2)c1 [Example 20, 1N-[(2-bromo-5-methoxybenzoyl)]-4N-[(phenylmethane)sulfonyl]piperazine] | 46.3 ± 11.7% | Viable C4-2 cells at 25 μM (% of control) (C4-2 cells [4]): 37 % of control; % Inhibition of proliferation at 25 μM (BrDU) on LNCaP (LNCaP cells [5]): 16.8%
COc1ccc(Br)c(C(=O)N2CCN(S(=O)(=O)c3ccccc3)CC2)c1 [Example 1, 1N-[(2-bromo-5-methoxybenzoyl)]-4N-[(phenyl)sulfonyl]piperazine] | 22.7 ± 11.2% | % LNCaP cells in phase S at 25 μM (LNCaP cells [2]): 18%; % C4-2 cells in phase S at 25 μM (C4-2 cells [3]): 20.1%; Viable C4-2 cells at 25 μM (% of control) (C4-2 cells [4]): 45 % of control
COc1ccc(S(=O)(=O)N2CCN(C(=O)c3cc(OC)ccc3Br)CC2)cc1 [Example 19, 1N-[(2-bromo-5-methoxybenzoyl)]-4N-[(4-methoxyphenyl)sulfonyl]piperazine] | 22.4 ± 7.7% | –
COc1ccc(Br)c(C(=O)N2CCN(S(=O)(=O)c3ccsc3)CC2)c1 [Example 22, 1N-[(2-bromo-5-methoxybenzoyl)]-4N-[(3-thiophene)sulfonyl]piperazine] | 28 ± 2.6% | –
COc1ccccc1C(=O)N1CCN(S(=O)(=O)c2ccc(F)cc2F)CC1 [Example 32, 1N-[(2-methoxybenzoyl)]-4-N-[(2,4-difluorophenyl)sulfonyl]piperazine] | 0% | –
COc1c(Br)cccc1C(=O)N1CCN(S(=O)(=O)c2ccc(F)cc2F)CC1 [Example 28, 1N-[(2-methoxy-3-bromobenzoyl)]-4-N-[(2,4-difluorophenyl)sulfonyl]piperazine] | 55.4 ± 14% | –
COc1ccc(Br)cc1C(=O)N1CCN(S(=O)(=O)c2ccc(F)cc2F)CC1 [Example 27, 1N-[(2-methoxy-5-bromobenzoyl)]-4-N-[(2,4-difluorophenyl)sulfonyl]piperazine] | 26.2 ± 6.2% | –
COc1ccc(Br)c(C(=O)N2CCN(S(=O)(=O)c3ccoc3)CC2)c1 [Example 24, 1N-[(2-bromo-5-methoxybenzoyl)]-4N-[(3-furan)sulfonyl]piperazine] | 28.4 ± 9.8% | –
COc1ccc(Br)c(C(=O)N2CCN(S(=O)(=O)c3ccc(OC(F)(F)F)cc3)CC2)c1 [Example 11] | 63 ± 4.1% | Viable C4-2 cells at 25 μM (% of control) (C4-2 cells [6]): 74 % of control; % Inhibition of proliferation at 25 μM (BrDU) on LNCaP (LNCaP cells [5]): 45.5%
COc1ccc(Br)c(C(=O)N2CCN(S(=O)(=O)c3ccco3)CC2)c1 [Example 23, 1N-[(2-bromo-5-methoxybenzoyl)]-4N-[(2-furan)sulfonyl]piperazine] | 48 ± 14% | –
O=C(c1ccsc1)N1CCN(S(=O)(=O)c2ccc(F)cc2F)CC1 [Example 36, 1N-[3-thiophenecarbonyl]-4-N-[(2,4-difluorophenyl)sulfonyl]piperazine] | 40 ± 7.6% | –
COc1ccc(Br)c(C(=O)N2CCN(S(=O)(=O)c3ccc(C)cc3)CC2)c1 [Example 10, 1N-[(2-bromo-5-methoxybenzoyl)]-4N-[(4-methylphenyl)sulfonyl]piperazine] | 0% | Viable C4-2 cells at 25 μM (% of control) (C4-2 cells [4]): 59 % of control; % Inhibition of proliferation at 25 μM (BrDU) on LNCaP (LNCaP cells [5]): 0%
CCCc1ccc(S(=O)(=O)N2CCN(C(=O)c3cc(OC)ccc3Br)CC2)cc1 [Example 5, 1N-[(2-bromo-5-methoxybenzoyl)]-4N-[(4-propylphenyl)sulfonyl]piperazine] | 26.8 ± 20.2% | % LNCaP cells in phase S at 25 μM (LNCaP cells [2]): 3%; % C4-2 cells in phase S at 25 μM (C4-2 cells [3]): 10.7%
COc1ccc(Br)c(C(=O)N2CCN(S(=O)(=O)c3ccc(C(C)C)cc3)CC2)c1 [Example 16, 1N-[(2-bromo-5-methoxybenzoyl)]-4N-[(4-isopropylphenyl)sulfonyl]piperazine] | 75.4 ± 10.8% | –
COc1ccc(Br)c(C(=O)N2CCN(S(=O)(=O)c3ccc(Br)cc3)CC2)c1 [Example 17, 1N-[(2-bromo-5-methoxybenzoyl)]-4N-[(4-bromophenyl)sulfonyl]piperazine] | 67.6 ± 8.2% | –
O=C(c1cscn1)N1CCN(S(=O)(=O)c2ccc(F)cc2F)CC1 [Example 37, 1N-[4-thiazolecarbonyl]-4-N-[(2,4-difluorophenyl)sulfonyl]piperazine] | 37 ± 7.8% | –
